# Assay results: patent US20080206770A1, “SCREENING METHODS USED TO IDENTIFY COMPOUNDS THAT MODULATE SKIN STROMAL CELLS (FIBROBLASTS) ABILITY TO MODIFY FUNCTION OF EXTRACELLULAR MATRIX” (priority 2007, published 2008)
# Experiments:
# [1] = test system: dermal fibroblasts isolated from 17 individuals; assay: Real time RT-PCR of ECM components, nuclear hormone receptors and coregulators in fibroblasts from 17 individuals; format: cell-based, human; settings: 24 hours
# Description: Total RNA was extracted from cells using RNA aqueous kit (Ambion, USA). First-strand cDNAs were synthesized with Superscript III reverse transcriptase (Invitrogen, USA) and 1 μg of total RNA using oligo d(T) priming in a final reaction volume of 40 μL.
# Levels of specific mRNAs were measured by real-time RT-PCR using Platinum SYBR Green qPCR SuperMix UDG (Invitrogen) according the protocol on the LightCycler 2.0 (Roche, US). The cycling program steps were: for one cycle 50° C. 2 min, for one cycle 95° C. 2 min and for 45 cycles: 95° C. 10 s, 60° C. 10 s, 72° C. 10 s. All samples were run in triplicates. Results were analyzed with the comparative Ct method (from Applied Biosystems manual; Livak and Schmittgen, 2001). Every sample was normalized for the housekeeping gene GAPDH. Transcript levels in the atRA and TGFb1 treated samples were compared to control samples.
# [2] = test system: skin fibroblasts from 30 individuals; assay: Combined score of expression stimulation of 5 genes in fibroblast isolates (FIG. 1); format: cell-based, human; settings: 24 hour treatment, atRA 10^-7 M, Matrixyl 1 μM, KappaElastin 1 μM
# Description: Human dermal fibroblasts were grown in DMEM cell culture media containing 10% fetal bovine serum and 1% penicillin/streptomycin (Invitrogen). For all experiments, third-passage fibroblasts were used one day after reaching confluence. […] After 24 hour treatment RNA and protein was isolated and analyzed for the expression of components of ECM and transcriptional regulators.
# Total RNA from various human tissues was purified using RNAwiz (Ambion, USA) and subjected to subsequent DNase I treatment using the DNA-Free kit (Ambion). Total RNA from cancer cells was purified by using 4PCRmini kit (Ambion). First-strand cDNAs were synthesized with Superscript III reverse transcriptase (Invitrogen, USA) and 5 μg of total RNA using oligo d(T) priming in a final reaction volume of 50 μL
# The cDNA was amplified by PCR using the 2.5 U Hot-Firepol (Solis BioDyne, Estonia) and buffer Yellow (Naxo, Estonia). Reaction was performed in a 10 ul volume, using 0.5 ul cDNA as a template. Following primer sets were designed for this study:
# The combined score of expression stimulation of 5 genes was calculated and blotted for each fibroblast isolate. […] This biological variation provides a good biological rational to use molecular diagnostics for matching cosmetics product and skin cells of specific individual (personalized cosmetics).
# [3] = fibroblasts from 17 individuals, 10 ng/ml
substance,measurement,setting,value
TGFbeta1: well-characterized profibrotic factor,expression of metalloproteinases and PPARγ,"[1]; 10 ng/ml, 17 individuals",suppresses significantly
same,gene expression of majority of collagens,"[1]; 10 ng/ml, 17 individuals",strongly upregulated
same,individual variation of collagen gene expression between individual fibroblasts,"[1]; 10 ng/ml, 17 individuals",up to 13 fold
same,variation of expression of PPARγ between different individuals,"[1]; 10 ng/ml, 17 individuals",up to 17 fold
same,effect on gene expression of different ECM genes compared with atRA,[1]; TGFβ1 10 ng/ml vs atRA 1 μM,noticeably stronger
same,"CBP expression in TGFbeta1 treatment compared to control, from-to between individuals",[1]; [3],(from −2.24 to 2.29) fold
same,"COL1A1 expression in TGFbeta1 treatment compared to control, from-to between individuals",[1]; [3],(from −1.11 to 7.75) fold
same,"COL1A2 expression in TGFbeta1 treatment compared to control, from-to between individuals",[1]; [3],(from 1.14 to 9.58) fold
same,"COL3A1 expression in TGFbeta1 treatment compared to control, from-to between individuals",[1]; [3],(from −1.75 to 6.82) fold
same,"COL4A1 expression in TGFbeta1 treatment compared to control, from-to between individuals",[1]; [3],(from 2.52 to 16.22) fold
same,"COL5A1 expression in TGFbeta1 treatment compared to control, from-to between individuals",[1]; [3],(from −1.61 to 6.08) fold
same,"COL5A2 expression in TGFbeta1 treatment compared to control, from-to between individuals",[1]; [3],(from 1.3 to 3.42) fold
same,"CTGF expression in TGFbeta1 treatment compared to control, from-to between individuals",[1]; [3],(from −1.8 to 11.00) fold
same,"ELN expression in TGFbeta1 treatment compared to control, from-to between individuals",[1]; [3],(from −3.33 to 10.63) fold
same,"FN 1 transcr.v.1 expression in TGFbeta1 treatment compared to control, from-to between individuals",[1]; [3],(from −3.23 to 3.75) fold
same,Individual variation of gene expression in TGFbeta1 treatment: CBP,[1]; [3],4.53 fold
same,Individual variation of gene expression in TGFbeta1 treatment: COL1A1,[1]; [3],8.86 fold
same,Individual variation of gene expression in TGFbeta1 treatment: COL1A2,[1]; [3],8.44 fold
same,Individual variation of gene expression in TGFbeta1 treatment: COL3A1,[1]; [3],8.57 fold
same,Individual variation of gene expression in TGFbeta1 treatment: COL4A1,[1]; [3],13.7 fold
same,Individual variation of gene expression in TGFbeta1 treatment: COL5A1,[1]; [3],7.69 fold
same,Individual variation of gene expression in TGFbeta1 treatment: COL5A2,[1]; [3],2.12 fold
same,Individual variation of gene expression in TGFbeta1 treatment: CTGF,[1]; [3],12.8 fold
same,Individual variation of gene expression in TGFbeta1 treatment: ELN,[1]; [3],13.96 fold
same,Individual variation of gene expression in TGFbeta1 treatment: FN 1 transcr.v.1,[1]; [3],6.98 fold
same,"Individual variation of gene expression in TGFbeta1 treatment: MMP1, collagenase 1",[1]; [3],7.02 fold
same,Individual variation of gene expression in TGFbeta1 treatment: MMP2 gelatinase,[1]; [3],4.77 fold
same,Individual variation of gene expression in TGFbeta1 treatment: MMP3 stromelysin,[1]; [3],5.8 fold
same,Individual variation of gene expression in TGFbeta1 treatment: MMP7,[1]; [3],32.8 fold
same,"Individual variation of gene expression in TGFbeta1 treatment: MMP10, stromelysin 2",[1]; [3],45.93 fold
same,Individual variation of gene expression in TGFbeta1 treatment: NCOA1,[1]; [3],5.64 fold
same,Individual variation of gene expression in TGFbeta1 treatment: NCOA2,[1]; [3],1.58 fold
same,Individual variation of gene expression in TGFbeta1 treatment: NCOA3,[1]; [3],6.21 fold
same,Individual variation of gene expression in TGFbeta1 treatment: NCOA5,[1]; [3],4.56 fold
same,Individual variation of gene expression in TGFbeta1 treatment: NCOA6,[1]; [3],2.82 fold
same,Individual variation of gene expression in TGFbeta1 treatment: NCOR1,[1]; [3],7.31 fold
same,Individual variation of gene expression in TGFbeta1 treatment: PPARG,[1]; [3],17.71 fold
same,Individual variation of gene expression in TGFbeta1 treatment: TIMP1,[1]; [3],5.73 fold
same,"MMP1, collagenase 1 expression in TGFbeta1 treatment compared to control, from-to between individuals",[1]; [3],(from −5.05 to 1.97) fold
same,"MMP2 gelatinase expression in TGFbeta1 treatment compared to control, from-to between individuals",[1]; [3],(from −2.51 to 2.26) fold
same,"MMP3 stromelysin expression in TGFbeta1 treatment compared to control, from-to between individuals",[1]; [3],(from −3.22 to 2.58) fold
same,"MMP7 expression in TGFbeta1 treatment compared to control, from-to between individuals",[1]; [3],(from −29.96 to 2.84) fold
same,"MMP10, stromelysin 2 expression in TGFbeta1 treatment compared to control, from-to between individuals",[1]; [3],(from −5.0 to 40.93) fold
same,"NCOA1 expression in TGFbeta1 treatment compared to control, from-to between individuals",[1]; [3],(from −2.76 to 2.88) fold
same,"NCOA2 expression in TGFbeta1 treatment compared to control, from-to between individuals",[1]; [3],(from −2.54 to −0.96) fold
same,"NCOA3 expression in TGFbeta1 treatment compared to control, from-to between individuals",[1]; [3],(from −4.81 to 1.4) fold
same,"NCOA5 expression in TGFbeta1 treatment compared to control, from-to between individuals",[1]; [3],(from −3.13 to 1.43) fold
same,"NCOA6 expression in TGFbeta1 treatment compared to control, from-to between individuals",[1]; [3],(from 1.64 to 1.18) fold
same,"NCOR1 expression in TGFbeta1 treatment compared to control, from-to between individuals",[1]; [3],(from −2.54 to 4.77) fold
same,"PPARG expression in TGFbeta1 treatment compared to control, from-to between individuals",[1]; [3],(from −16.51 to 1.2) fold
same,"TIMP1 expression in TGFbeta1 treatment compared to control, from-to between individuals",[1]; [3],(from −2.45 to 3.28) fold
palmitoys pentapeptide-3 [Matrixyl],"combined score of expression stimulation of 5 genes (COL1A1, COL2A1, elastin, proteoglycan, TIMP1) per fibroblast isolate",[2],3 groups of fibroblasts that have different response
